Key:
CA755 adenocarcinoma = CA755 adenocarcinoma tumor model; assay type: in vivo, mice (C57BL/6); settings: IP, Days 1,5,9
Source text: CA755--The adenocarcinoma 755 is an undifferentiated mammary carcinoma which was obtained in 1980 from the Division of Cancer Treatment, N.C.I., tumor bank maintained at E.G. and G. Mason Research (Worchester, Mass.). First passage tumor was stored in liquid nitrogen using standard techniques. The transplanted tumor was re-established from the tumor bank every six months or as needed. The tumor is maintained by serial passage once a week in C57BL/6 female mice (Jackson Laboratory; Bar Harbor, Me.).
(§1) The tumor was removed from passage animals and minced into 1 to 3 mm square fragments using sterile techniques. Tumor pieces were checked for sterility using both Antibiotic Medium 1 and Brain Heart Infusion (Difco; Detroit, Mich.). Recipient mice were shaved and tumor pieces were implanted subcutaneously in the axillary region by trocar. Drug therapy on the appropriate schedule was initiated on the day after tumor implant. The compound was dissolved in saline for all experiments. All animals were weighed at the beginning and end of drug treatment. Food and water were provided ad libitum. On days 10 to 12, two dimensional measurements (width and length) of all tumors were taken using vernier calipers. Tumor weights were calculated from these measurements using the following formula:
(§2) Tumor Weight (mg)=Tumor Length (mm)×Tumor Width (mm)^2 /2
(§3) For all data, the tumor weight was rounded to the nearest tenth of a gram for analysis. No group is included in the analysis for therapeutic activity in which deaths attributable to drug toxicity exceeded 30 percent of the treated group.
(§4) In Table 3 which follows, column 1 gives the example number of the compound tested; column 2 provides the tumor system; column 3, the dose level; column 4, the route administered; column 5, the dosage schedule; column 6, the percent inhibition of the tumor; and column 7, the toxic deaths observed prior to completion of the study.

6C3HED lymphosarcoma = 6C3HED lymphosarcoma tumor model; assay type: in vivo, mice (C3H); settings: IP
Source text: 6C3HED--The 6C3HED lymphosarcoma was obtained in 1979 from the Division of Cancer Treatment, N.C.I., tumor bank maintained at E.G. and G. Mason Research (Worchester, Mass.). First passage tumor was stored in liquid nitrogen using standard techniques. The transplanted tumor was re-established from the tumor bank every six months or as needed. The tumor is maintained by serial passage twice weekly in C3H mice (Charles River; Wilmington, Mass.).
as §1, §2, §3, §4

Nc1ccn(C2O[C@H](CO)[C@@H](O)C2(F)F)c(=O)n1 (stereo partly shown) [Example 1, 1-(4-Amino-2-oxo-1H-pyrimidin-1-yl)-2-desoxy-2,2-difluororibose]
Percent Inhibition of Tumor (CA755 adenocarcinoma; 1.25 mg/kg): 0%
Toxic Deaths (CA755 adenocarcinoma; 1.25 mg/kg): 0/10
Percent Inhibition of Tumor (CA755 adenocarcinoma; 2.5 mg/kg): 44%
Toxic Deaths (CA755 adenocarcinoma; 2.5 mg/kg): 0/10
Percent Inhibition of Tumor (CA755 adenocarcinoma; 5.0 mg/kg): 85%
Toxic Deaths (CA755 adenocarcinoma; 5.0 mg/kg): 0/10
Percent Inhibition of Tumor (CA755 adenocarcinoma; 10.0 mg/kg): 86%
Toxic Deaths (CA755 adenocarcinoma; 10.0 mg/kg): 0/10
Percent Inhibition of Tumor (CA755 adenocarcinoma; 20.0 mg/kg): 94%
Toxic Deaths (CA755 adenocarcinoma; 20.0 mg/kg): 0/10
Percent Inhibition of Tumor (6C3HED lymphosarcoma; 0.05 mg/kg, Daily for 8 Days): 0%
Toxic Deaths (6C3HED lymphosarcoma; 0.05 mg/kg, Daily for 8 Days): 0/10
Percent Inhibition of Tumor (6C3HED lymphosarcoma; 0.1 mg/kg, Daily for 8 Days): 0%
Toxic Deaths (6C3HED lymphosarcoma; 0.1 mg/kg, Daily for 8 Days): 0/10
Percent Inhibition of Tumor (6C3HED lymphosarcoma; 0.2 mg/kg, Daily for 8 Days): 0%
Toxic Deaths (6C3HED lymphosarcoma; 0.2 mg/kg, Daily for 8 Days): 0/10
Percent Inhibition of Tumor (6C3HED lymphosarcoma; 0.4 mg/kg, Daily for 8 Days): 8%
Toxic Deaths (6C3HED lymphosarcoma; 0.4 mg/kg, Daily for 8 Days): 0/10
Percent Inhibition of Tumor (6C3HED lymphosarcoma; 1.25 mg/kg, Days 1,5,9): 0%
Toxic Deaths (6C3HED lymphosarcoma; 1.25 mg/kg, Days 1,5,9): 0/7
Percent Inhibition of Tumor (6C3HED lymphosarcoma; 2.5 mg/kg, Days 1,5,9): 1%
Toxic Deaths (6C3HED lymphosarcoma; 2.5 mg/kg, Days 1,5,9): 0/7
Percent Inhibition of Tumor (6C3HED lymphosarcoma; 5.0 mg/kg, Days 1,5,9): 49%
Toxic Deaths (6C3HED lymphosarcoma; 5.0 mg/kg, Days 1,5,9): 0/7
Percent Inhibition of Tumor (6C3HED lymphosarcoma; 10.0 mg/kg, Days 1,5,9): 88%
Toxic Deaths (6C3HED lymphosarcoma; 10.0 mg/kg, Days 1,5,9): 0/7
Percent Inhibition of Tumor (6C3HED lymphosarcoma; 20.0 mg/kg, Days 1,5,9): 95%
Toxic Deaths (6C3HED lymphosarcoma; 20.0 mg/kg, Days 1,5,9): 0/7
